The source of these data is PMC10996005, “Identification and Development of Cyclic Peptide Inhibitors of Hypoxia Inducible Factors 1 and 2 That Disrupt Hypoxia-Response Signaling in Cancer Cells” (Journal of the American Chemical Society, 2024).

Each structure is given as a SMILES string. Where a SMILES comes first, the peptide text is derived from it. [ ]: non-standard residue; d: D form. Phe(4-CN) = N#Cc1ccc(C[C@H](N)C(=O)O)cc1; Phe(4-Cl) = N[C@@H](Cc1ccc(Cl)cc1)C(=O)O; Phe(4-I) = N[C@@H](Cc1ccc(I)cc1)C(=O)O; 1Nal = N[C@@H](Cc1cccc2ccccc12)C(=O)O; hPhe = N[C@@H](CCc1ccccc1)C(=O)O; 4Pal = N[C@@H](Cc1ccncc1)C(=O)O; Aib = CC(C)(N)C(=O)O Some results are limits rather than exact numbers.

Broadly, the Kd is the constant that tells how readily two partners part at equilibrium.

T1 sequence (Q16665 238-349 limits assumed): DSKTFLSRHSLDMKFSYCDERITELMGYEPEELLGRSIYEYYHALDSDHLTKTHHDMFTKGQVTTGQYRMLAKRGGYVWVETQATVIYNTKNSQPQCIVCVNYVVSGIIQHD
T2 sequence (Q99814 240-350 limits assumed): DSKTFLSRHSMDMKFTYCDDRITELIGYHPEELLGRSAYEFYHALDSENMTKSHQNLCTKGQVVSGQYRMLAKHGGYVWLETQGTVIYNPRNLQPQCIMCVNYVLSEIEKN

One test concerns the target T1, HIF-1α PAS-B domain (Homo sapiens, UniProt Q16665).
T1 construct: made in house
The experiment in a line: MST binding to the PAS-B domain of HIF-1α. The settings on record: KD for HIF-1α PAS-B, MST; mean ± SEM, n = 2 (n = 1 for most C1 analogues, n = 3 in Figure S2). The procedure:
(§1) All reagents were purchased from Fisher Scientific or Sigma Aldrich UK unless specified otherwise.
(§2) Restriction enzymes and microbiology reagents were purchased from New England Biolabs Inc., Fisher Scientific (UK) or Promega (UK) and were used as directed by the manufacturer. Primers and oligonucleotides were synthesised by Integrated DNA Technologies (UK). DNA sequencing was carried out by Eurofins MWG Operon (Germany).
(§3) Construction of the RTHS and SICLOPPS library, screening, purification of recombinant HIF proteins, and the PLA was conducted as previously described in Miranda et al., J. Am. Chem. Soc., 2013, 135(28); […]
(§4) Protein labelling with MST dye
(§5) Protein was buffer exchanged from storage buffer into labelling buffer (0.1 M NaHCO3, pH 8.5) using a PD spintrap G-25 column (GE healthcare). The protein concentration was then adjusted to 20 µM.
(§6) The commercially sourced MST dye (NanoTemper) was prepared as a 470 µM solution in DMSO, which was then further diluted to 60 µM using labelling buffer. To the protein solution was added an equal volume of dye solution, and the labelling reaction was left for 1 hour in the dark at room temperature.
(§7) The labelled protein was separated from unreacted dye by elution through a PD minitrap G-25 column (GE healthcare). Labelled protein was then aliquoted and stored at -80 °C. Extent of labelling was measured by the absorbance obtained using the UV-vis mode on a NanoDrop ND-1000 Spectrophotometer (NanoDrop Technologies, USA).
(§8) Labelled protein was thawed on ice and diluted to 50 nM in assay buffer containing 50 mM Tris pH 8.0, 150 mM NaCl, 5% (v/v) glycerol, 1 mM TCEP and 0.05% TWEEN-20. The protein solution was then centrifuged at 12000 rpm for 15 minutes at 4 °C and left on ice. Compounds were prepared and serially diluted in DMSO at 10x assay concentration, before diluting to 2x assay concentration in assay buffer.
(§9) The 2x compound solutions were then mixed 1:1 (v/v) with 50 nM labelled protein solution and left to incubate for 1 hour at room temperature. Solutions were then loaded into Monolith NT.115 Premium Capillaries (NanoTemper) and placed in the sample tray. MST experiments were carried out
In turn, `CC[C@H](C)[C@@H]1NC(=O)[C@H](C(C)C)NC(=O)[C@H](CCCNC(=N)N)NC(=O)[C@H](CS)NC(=O)[C@H](Cc2ccccc2)NC(=O)[C@H]([C@@H](C)CC)NC1=O` [cyclo-CRVIIF] (cyclo(CRVIIF); ring closure inferred) registered a Kd of 65.5 ± 11.4 µM.

The test is the same for the next values; noted with them: MST.
As to `CC[C@H](C)[C@@H]1NC(=O)[C@H](CC(C)C)NC(=O)[C@H](CC(C)C)NC(=O)[C@H](CCCNC(=N)N)NC(=O)[C@H](CS)NC(=O)[C@H](Cc2ccccc2)NC1=O` [cyclo-CRLLIF] (cyclo(CRLLIF); ring closure inferred), the “Hill slope of binding curve to HIF-1α” value amounted to 1.22.

The test is the same for the next values; noted with them: MST KD ratio.
For `CC[C@H](C)[C@@H]1NC(=O)[C@H](CC(C)C)NC(=O)[C@H](CCCNC(=N)N)NC(=O)[C@H](CS)NC(=O)[C@H](Cc2ccncc2)NC(=O)[C@H]([C@@H](C)CC)NC1=O` [4-Pal, cyclo-CRLII(4-Pal)] (cyclo([4Pal]CRLII)), the “loss of affinity (KD) compared to cyclo-CRLIIF” value is recorded as roughly 11 fold.
On the same count and under the same terms, the same measure for `CC[C@H](C)[C@H](NC(C)=O)C(=O)N[C@@H](Cc1ccccc1)C(=O)N[C@@H](CS)C(N)=O` [Ac-IFC-NH2] (Ac-Ile-Phe-Cys-NH2): roughly 10 fold.
Take `CC[C@H](C)[C@@H]1NC(=O)[C@H](CC(C)C)NC(=O)[C@H](CCCNC(=N)N)NC(=O)[C@H](CS)NC(=O)[C@H](CCc2ccccc2)NC(=O)[C@H]([C@@H](C)CC)NC1=O` [hF, cyclo-CRLIIhF] (cyclo(CRLII[hPhe])): the “improvement in HIF-1α binding affinity compared to the parent cyclic peptide cyclo-CRLIIF” value is 3 fold.

Staying with this test, now noted: MST KD ratio vs Ac-IFC-NH2.
In the case of `CC[C@H](C)[C@H](NC(C)=O)C(=O)N[C@@H](Cc1ccc(I)cc1)C(=O)N[C@@H](CS)C(N)=O` [Ac-I(4-iodo)FC-NH2] (Ac-Ile-[Phe(4-I)]-Cys-NH2), the “improvement in HIF-1α affinity over the parent tripeptide” value is given as roughly 3 fold.

The same test, now with this note: MST; mean ± SEM, n = 2 (n = 1 for most C1 analogues, n = 3 in Figure S2); read-out: KD for HIF-1α PAS-B.
As to `CC[C@H](C)[C@@H]1NC(=O)[C@H](C)NC(=O)[C@H](CCCNC(=N)N)NC(=O)[C@H](CS)NC(=O)[C@H](Cc2ccccc2)NC(=O)[C@H]([C@@H](C)CC)NC1=O` [cyclo-CRAIIF] (cyclo(CRAIIF)), the Kd turned out to be 52.7 ± 5.6 µM.
Same read-out and setting: the same measure for `CC[C@H](C)[C@@H]1NC(=O)[C@H](CC(C)C)NC(=O)[C@H](CCCNC(=N)N)NC(=O)[C@H](CS)NC(=O)[C@H](Cc2ccccc2)NC(=O)C(C)(C)NC1=O` [Aib, cyclo-CRLIAibF] (cyclo([Aib]FCRLI)): 22.4 ± 0.1 µM.
Same read-out and setting: the same measure for `CC[C@H](C)[C@@H]1NC(=O)[C@H](CC(C)C)NC(=O)[C@H](CCCNC(=N)N)NC(=O)[C@H](CS)NC(=O)[C@H](Cc2cccc3ccccc23)NC(=O)[C@H]([C@@H](C)CC)NC1=O` [1-Nal, cyclo-CRLII(1-Nal)] (cyclo([1Nal]CRLII)): 1.7 ± 0.5 µM; for `CC[C@H](C)[C@H](NC(C)=O)C(=O)N[C@@H](Cc1ccc(I)cc1)C(=O)N[C@@H](CS)C(N)=O` [Ac-I(4-iodo)FC-NH2] (Ac-Ile-[Phe(4-I)]-Cys-NH2): 21.5 ± 3 µM; for `CC[C@H](C)[C@@H]1NC(=O)[C@H](CC(C)C)NC(=O)[C@H](CCCNC(=N)N)NC(=O)[C@H](CS)NC(=O)[C@H](Cc2ccc(C#N)cc2)NC(=O)[C@H]([C@@H](C)CC)NC1=O` [CN, cyclo-CRLII(4-CN)F] (cyclo(CRLII[Phe(4-CN)])): 4.4 ± 0.1 µM.
As to `CC[C@H](C)[C@@H]1NC(=O)[C@H](CC(C)C)NC(=O)[C@H](CCCNC(=N)N)NC(=O)[C@H]([C@@H](C)O)NC(=O)[C@H](Cc2ccccc2)NC(=O)[C@H]([C@@H](C)CC)NC1=O` [T, cyclo-TRLIIF] (cyclo(FTRLII)), the Kd was greater than 100 µM.
Same read-out and setting: the same measure for `CC[C@H](C)[C@@H]1NC(=O)[C@H](CC(C)C)NC(=O)[C@H](CCCNC(=N)N)NC(=O)[C@H](CS)NC(=O)[C@H](Cc2ccccc2)NC(=O)[C@H](CC(C)C)NC1=O` [L, cyclo-CRLILF] (cyclo(CRLILF)): 11.4 ± 0.4 µM; for `CC[C@H](C)[C@@H]1NC(=O)[C@H](CC(C)C)NC(=O)[C@H](CCCNC(=N)N)NC(=O)[C@H](CS)NC(=O)[C@H](Cc2ccc(Cl)cc2)NC(=O)[C@H]([C@@H](C)CC)NC1=O` [Cl, cyclo-CRLII(4-Cl)F] (cyclo(CRLII[Phe(4-Cl)])): 1.2 ± 0.3 µM.
The same measure, in the same setting: the value for `CC[C@H](C)[C@@H]1NC(=O)[C@H](CC(C)C)NC(=O)[C@H](CCCNC(=N)N)NC(=O)[C@H](CSC)NC(=O)[C@H](Cc2ccccc2)NC(=O)[C@H]([C@@H](C)CC)NC1=O` [C(Me), cyclo-C(Me)RLIIF] (cyclo(C(Me)RLIIF)) was greater than 50 µM; that for `CC[C@H](C)[C@@H]1NC(=O)[C@H](CC(C)C)NC(=O)[C@H](CCCNC(=N)N)NC(=O)[C@H](CS)NC(=O)[C@H](CCc2ccccc2)NC(=O)[C@H]([C@@H](C)CC)NC1=O` [hF, cyclo-CRLIIhF] (cyclo(CRLII[hPhe])) was 1.2 ± 0.7 µM.

The same test, now with this note: ratio of MST KD values.
Regarding `CC[C@H](C)[C@@H]1NC(=O)[C@H](C(C)C)NC(=O)[C@H](CCCNC(=N)N)NC(=O)[C@H](CS)NC(=O)[C@H](Cc2ccccc2)NC(=O)[C@H]([C@@H](C)CC)NC1=O` [cyclo-CRVIIF] (cyclo(CRVIIF); ring closure inferred), the “selectivity for HIF-1α over HIF-2α” value stood at 2 fold.

The next test addresses T2, HIF-2α PAS-B domain (Homo sapiens, UniProt Q99814).
T2 construct: made in house
The test can be described thus: MST binding to the PAS-B domain of HIF-2α. The settings on record: MST. The procedure: as §1, §2, §3, §4, §5, §6, §7, §8, §9
In the case of `CC[C@H](C)[C@@H]1NC(=O)[C@H](CC(C)C)NC(=O)[C@H](CC(C)C)NC(=O)[C@H](CCCNC(=N)N)NC(=O)[C@H](CS)NC(=O)[C@H](Cc2ccccc2)NC1=O` [cyclo-CRLLIF] (cyclo(CRLLIF); ring closure inferred), the “Hill slope of binding curve to HIF-2α” value came out at 1.45.

The test is the same for the next values; noted with them: MST; mean (n = 2) ± SEM.
With `CC[C@H](C)[C@@H]1NC(=O)[C@H](C)NC(=O)[C@H](CCCNC(=N)N)NC(=O)[C@H](CS)NC(=O)[C@H](Cc2ccccc2)NC(=O)[C@H]([C@@H](C)CC)NC1=O` [cyclo-CRAIIF] (cyclo(CRAIIF)), the Kd is 52.3 ± 6.6 µM.
